# From patent US20090054392A1, “NAPHTHYLPYRIMIDINE, NAPHTHYLPYRAZINE AND NAPHTHYLPYRIDAZINE ANALOGS AND THEIR USE AS AGONISTS OF THE WNT-BETA-CATENIN CELLULAR MESSAGING SYSTEM” (Wyeth, priority 2007, published 2009)
# Test system: Dkk1-LRP5-TCF-Luciferase
# Test: Functional Dkk1-LRP5-TCF-Luciferase Assay in U2OS Cells
# Conditions: for fold induction at 2 µM / fold induction at 20 µM / EC50: Homo sapiens, U2OS; for fold induction at 2 µM: read-out: B = TCF ACTIVITY/DMSO CONTROL Fold induction @ 2.0 uM, 2.0 uM compound; for fold induction at 20 µM: read-out: C = TCF ACTIVITY/DMSO CONTROL Fold induction @ 20.0 uM, 20.0 uM compound; for A = MAX FOLD Induction/DMSO CONTROL: maximum fold induction over DMSO control
SMILES,EC50 [nM],A = MAX FOLD Induction/DMSO CONTROL [fold],fold induction at 2 µM,fold induction at 20 µM
"CN(C)[C@@H]1CCN(C[C@@H]2CCN(c3nccc(-c4ccc5ccccc5c4)n3)C2)C1 [(3R)—N,N-dimethyl-1-({(3S)-1-[4-(2-naphthyl)pyrimidin-2-yl]pyrrolidin-3-yl}methyl)pyrrolidin-3-amine]",,,1.53,0.03
"CN(C)[C@@H]1CCN(c2nccc(-c3ccc4ccccc4c3)n2)C1 [(3R)—N,N-dimethyl-1-[4-(2-naphthyl)pyrimidin-2-yl]pyrrolidin-3-amine]",3560,5.193,2.88,0.065
"CN(C)[C@@H]1CCN(C(=O)[C@H]2CCCN2c2nccc(-c3ccc4ccccc4c3)n2)C1 [(3R)—N,N-dimethyl-1-{1-[4-(2-naphthyl)pyrimidin-2-yl]-D-prolyl}pyrrolidin-3-amine]",,1.630,0.93,1.85
"CN(C)[C@@H]1CCN(C(=O)[C@@H]2CCCN2c2nccc(-c3ccc4ccccc4c3)n2)C1 [(3R)—N,N-dimethyl-1-{1-[4-(2-naphthyl)pyrimidin-2-yl]-L-prolyl}pyrrolidin-3-amine]",,2.335,1.1,4.43
"CN(C)C(=O)N1CC[C@@H](Nc2nccc(-c3ccc4ccccc4c3)n2)C1 [(3R)—N,N-dimethyl-3-{[4-(2-naphthyl)pyrimidin-2-yl]amino}pyrrolidine-1-carboxamide]",,,,1.33
"CN(C)S(=O)(=O)N1CC[C@@H](Nc2nccc(-c3ccc4ccccc4c3)n2)C1 [(3R)—N,N-dimethyl-3-{[4-(2-naphthyl)pyrimidin-2-yl]amino}pyrrolidine-1-sulfonamide]",3160,2.510,,2.31
c1ccc2cc(-c3ccnc(N4CC[C@@H](NCCN5CCOCC5)C4)n3)ccc2c1 [(3R)—N-(2-morpholin-4-ylethyl)-1-[4-(2-naphthyl)pyrimidin-2-yl]pyrrolidin-3-amine],,,1.71,0.21
CC(C)(C)N[C@@H]1CCN(c2nccc(-c3ccc4ccccc4c3)n2)C1 [(3R)—N-(tert-butyl)-1-[4-(2-naphthyl)pyrimidin-2-yl]pyrrolidin-3-amine],,,1.56,0.29
CN(C1CCCCC1)[C@@H]1CCN(c2nccc(-c3ccc4ccccc4c3)n2)C1 [(3R)—N-cyclohexyl-N-methyl-1-[4-(2-naphthyl)pyrimidin-2-yl]pyrrolidin-3-amine],,,1.07,1.77
CCNC(=O)N1CC[C@@H](Nc2nccc(-c3ccc4ccccc4c3)n2)C1 [(3R)—N-ethyl-3-{[4-(2-naphthyl)pyrimidin-2-yl]amino}pyrrolidine-1-carboxamide],,1.460,,2.01
CN[C@@H]1CCN(c2nccc(-c3ccc4ccccc4c3)n2)C1 [(3R)—N-methyl-1-[4-(2-naphthyl)pyrimidin-2-yl]pyrrolidin-3-amine],,,1.2,
"N[C@@H]1CCN([C@@H]2CCN(c3nccc(-c4ccc5ccccc5c4)n3)C2)C1 [(3R,3′R)-1′-[4-(2-naphthyl)pyrimidin-2-yl]-1,3′-bipyrrolidin-3-amine]",,,1.39,
"O[C@@H]1CCN([C@@H]2CCN(c3nccc(-c4ccc5ccccc5c4)n3)C2)C1 [(3R,3′R)-1′-[4-(2-naphthyl)pyrimidin-2-yl]-1,3′-bipyrrolidin-3-ol]",,,,2.5
"CN(C)[C@@H]1CCN([C@@H]2CCN(c3nccc(-c4ccc5ccccc5c4)n3)C2)C1 [(3R,3′R)-N,N-dimethyl-1′-[4-(2-naphthyl)pyrimidin-2-yl]-1,3′-bipyrrolidin-3-amine]",,1.710,2.71,0.01
"O[C@@H]1CCN([C@H]2CCN(c3nccc(-c4ccc5ccccc5c4)n3)C2)C1 [(3R,3′S)-1′-[4-(2-naphthyl)pyrimidin-2-yl]-1,3′-bipyrrolidin-3-ol]",,,2.1,
"CN(C)[C@@H]1CCN([C@H]2CCN(c3nccc(-c4ccc5ccccc5c4)n3)C2)C1 [(3R,3′S)-N,N-dimethyl-1′-[4-(2-naphthyl)pyrimidin-2-yl]-1,3′-bipyrrolidin-3-amine]",1070,4.637,4.17,
O[C@H]1CCCN(CC2CCN(c3nccc(-c4ccc5ccccc5c4)n3)C2)C1 (stereo partly drawn) [(3S)-1-({1-[4-(2-naphthyl)pyrimidin-2-yl]pyrrolidin-3-yl}methyl)piperidin-3-ol],1010,6.950,4.34,
O[C@H]1CCN(CC2CCN(c3nccc(-c4ccc5ccccc5c4)n3)C2)C1 (stereo partly drawn) [(3S)-1-({1-[4-(2-naphthyl)pyrimidin-2-yl]pyrrolidin-3-yl}methyl)pyrrolidin-3-ol],,,3.2,
"FC(F)(F)CN[C@H]1CCN(c2nccc(-c3ccc4ccccc4c3)n2)C1 [(3S)-1-[4-(2-naphthyl)pyrimidin-2-yl]-N-(2,2,2-trifluoroethyl)pyrrolidin-3-amine]",,,0.83,1.38
N[C@H]1CCN(c2nccc(-c3ccc4ccccc4c3)n2)C1 [(3S)-1-[4-(2-naphthyl)pyrimidin-2-yl]pyrrolidin-3-amine],,,1.48,
c1ccc2cc(-c3ccnc(N4CC[C@H](NCCN5CCOCC5)C4)n3)ccc2c1 [(3S)—N-(2-morpholin-4-ylethyl)-1-[4-(2-naphthyl)pyrimidin-2-yl]pyrrolidin-3-amine],,,1.39,0.91
CN(C1CCCCC1)[C@H]1CCN(c2nccc(-c3ccc4ccccc4c3)n2)C1 [(3S)—N-cyclohexyl-N-methyl-1-[4-(2-naphthyl)pyrimidin-2-yl]pyrrolidin-3-amine],,,1.22,0.01
CN[C@H]1CCN(c2nccc(-c3ccc4ccccc4c3)n2)C1 [(3S)—N-methyl-1-[4-(2-naphthyl)pyrimidin-2-yl]pyrrolidin-3-amine],,,1.75,

# Now from value to compound, other results behind:
EC50 [nM],A = MAX FOLD Induction/DMSO CONTROL [fold],SMILES,fold induction at 2 µM,fold induction at 20 µM
2400,,O[C@H]1CCCN([C@@H]2CCN(c3nccc(-c4ccc5ccccc5c4)n3)C2)C1 [(3S)-1-{(3R)-1-[4-(2-naphthyl)pyrimidin-2-yl]pyrrolidin-3-yl}piperidin-3-ol],,
930,,O[C@H]1CCCN([C@H]2CCN(c3nccc(-c4ccc5ccccc5c4)n3)C2)C1 [(3S)-1-{(3S)-1-[4-(2-naphthyl)pyrimidin-2-yl]pyrrolidin-3-yl}piperidin-3-ol],,
6800,3.165,O=CN1CC[C@H](Nc2nccc(-c3ccc4ccccc4c3)n2)C1 [(3S)-3-{[4-(2-naphthyl)pyrimidin-2-yl]amino}pyrrolidine-1-carbaldehyde],1.8,3.51
1520,2.750,NC(=O)N1CC[C@H](Nc2nccc(-c3ccc4ccccc4c3)n2)C1 [(3S)-3-{[4-(2-naphthyl)pyrimidin-2-yl]amino}pyrrolidine-1-carboxamide],2.05,2.94
,2.260,"CN(C)[C@H]1CCN(C[C@H]2CCN(c3nccc(-c4ccc5ccccc5c4)n3)C2)C1 [(3S)—N,N-dimethyl-1-({(3R)-1-[4-(2-naphthyl)pyrimidin-2-yl]pyrrolidin-3-yl}methyl)pyrrolidin-3-amine]",2.55,0.02
,1.660,"CN(C)[C@H]1CCN(C[C@@H]2CCN(c3nccc(-c4ccc5ccccc5c4)n3)C2)C1 [(3S)—N,N-dimethyl-1-({(3S)-1-[4-(2-naphthyl)pyrimidin-2-yl]pyrrolidin-3-yl}methyl)pyrrolidin-3-amine]",2.08,0.01
3000,3.390,"CN(C)[C@H]1CCN(c2nccc(-c3ccc4ccccc4c3)n2)C1 [(3S)—N,N-dimethyl-1-[4-(2-naphthyl)pyrimidin-2-yl]pyrrolidin-3-amine]",,0.08
,2.115,"CN(C)[C@H]1CCN(C(=O)[C@H]2CCCN2c2nccc(-c3ccc4ccccc4c3)n2)C1 [(3S)—N,N-dimethyl-1-{1-[4-(2-naphthyl)pyrimidin-2-yl]-D-prolyl}pyrrolidin-3-amine]",1.05,2.43
,2.175,"CN(C)[C@H]1CCN(C(=O)[C@@H]2CCCN2c2nccc(-c3ccc4ccccc4c3)n2)C1 [(3S)—N,N-dimethyl-1-{1-[4-(2-naphthyl)pyrimidin-2-yl]-L-prolyl}pyrrolidin-3-amine]",1.16,3.37
2700,2.945,"CN(C)C(=O)N1CC[C@H](Nc2nccc(-c3ccc4ccccc4c3)n2)C1 [(3S)—N,N-dimethyl-3-{[4-(2-naphthyl)pyrimidin-2-yl]amino}pyrrolidine-1-carboxamide]",2.05,3.05
3960,2.050,"CN(C)S(=O)(=O)N1CC[C@H](Nc2nccc(-c3ccc4ccccc4c3)n2)C1 [(3S)—N,N-dimethyl-3-{[4-(2-naphthyl)pyrimidin-2-yl]amino}pyrrolidine-1-sulfonamide]",1.09,2.01
,2.690,CC(C)(C)N[C@H]1CCN(c2nccc(-c3ccc4ccccc4c3)n2)C1 [(3S)—N-(tert-butyl)-1-[4-(2-naphthyl)pyrimidin-2-yl]pyrrolidin-3-amine],2.39,
,2.500,CCNC(=O)N1CC[C@H](Nc2nccc(-c3ccc4ccccc4c3)n2)C1 [(3S)—N-ethyl-3-{[4-(2-naphthyl)pyrimidin-2-yl]amino}pyrrolidine-1-carboxamide],2.49,2.81
